From US7897401B2, “Control of apoptosis by controlling the propensity of ceramide channel formation” (University of Maryland, College Park, priority 2005, dated 2011)

Experiments:
ceramide channels = assay: Screening for influence on ceramide channel formation in liposomes or planar membranes; type: biochemical
Description: In one embodiment, such methods comprise screening compounds for their ability to influence the formation of ceramide channels in liposomes or planar membranes. […] Such liposomes or planar membranes can be produced using any of a variety of lipids. Preferably, however, the constituents of the liposomes or planar membranes will be selected to mimic those of the MOM, or to have relevance to such membranes (see, Weissig, V. et al. (2006) “LIPOSOMES AND LIPOSOME-LIKE VESICLES FOR DRUG AND DNA DELIVERY TO MITOCHONDRIA,” J. Liposome Res. 16(3):249-264; Torchilin, V. P. (2006) “RECENT APPROACHES TO INTRACELLULAR DELIVERY OF DRUGS AND DNA AND ORGANELLE TARGETING,” Annu. Rev. Biomed. Eng. 8:343-375; Elrick, M. J. et al. (2006) “SPHINGOSINE, A PRODUCT OF CERAMIDE HYDROLYSIS, INFLUENCES THE FORMATION OF CERAMIDE CHANNELS,” Biophys. J. 1; 91(5):1749-1756; Bathori, G. et al. (2006) “CA2+-DEPENDENT CONTROL OF THE PERMEABILITY PROPERTIES OF THE MITOCHONDRIAL OUTER MEMBRANE AND VOLTAGE-DEPENDENT ANION-SELECTIVE CHANNEL (VDAC),” J. Biol. Chem. 281(25):17347-17358; Stiban, J. et al. (2006) “DIHYDROCERAMIDE HINDERS CERAMIDE CHANNEL FORMATION: IMPLICATIONS ON APOPIOSIS,” Apoptosis 11(5):773-780; Stover, T. C. et al. (2005) “SYSTEMIC DELIVERY OF LIPOSOMAL SHORT-CHAIN CERAMIDE LIMITS SOLID TUMOR GROWTH IN MURINE MODELS OF BREAST ADENOCARCINOMA,” Clin. Cancer Res. 11(9):3465-3474).

erythrocytes = assay: Permeabilization of erythrocytes (osmolytes of varying molecular weight); type: cell-based
[1] = test system: ceramide channels in the MOM of rat liver mitochondria; assay: Complex IV accessibility assay (cytochrome c oxidation), isolated rat liver mitochondria; type: biochemical; details: radiolabeled ceramide, rat liver mitochondria, FIG. 12
Description: The amount of ceramide that needs to be added to mitochondria to achieve permeabilization of the MOM to proteins is high compared to physiological levels. However, it is not the absolute ceramide concentration in solution that is important, but rather the concentration of ceramide in the membrane. In addition, only a small percentage of the ceramide added to the solution actually inserts into the membrane. This issue was directly addressed by using radiolabeled ceramide and simultaneously measuring how much ceramide inserts into rat liver mitochondria and how much permeabilization is achieved in the MOM by measuring the accessibility of exogenously added cytochrome c. […] Levels measured in mitochondria in the early stages of apoptosis are 4 pmoles per nmole. Thus, the results are well within the physiological range. Note that after correcting for the membrane partitioning, long and short-chain ceramide have equal potency as expected from the model of the ceramide channel.
The ability of the naturally-occurring C16-ceramide to form channels in the mitochondrial outer membranes of isolated yeast mitochondria was assessed via the complex IV accessibility assay. This assay measures the bidirectional flux of cytochrome c across the mitochondrial outer membrane (MOM) by monitoring its oxidation by complex IV of the mitochondrial inner membrane electron transport chain. The initial rate of cytochrome c oxidation when expressed as a percent of the rate measured in mitochondria with damaged outer membranes is a good measure of the permeability of the MOM to proapoptotic proteins. This method has an advantage over simply looking for the release of cytochrome c because both channel prevention and reversal by a potential inhibitor can be evaluated.
Thus, mitochondria are isolated from wild type yeast and yeast strains expressing either human Bcl-2 or Bcl-xL according to previously published methods (Lee, A. et al. (1998) “THE ROLE OF YEAST VDAC GENES ON THE PERMEABILITY OF THE MITOCHONDRIAL OUTER MEMBRANE,” J. Membr. Biol. 161:173-181). Isolated yeast mitochondria are incubated with the naturally occurring C16-ceramide and its ability to form channels is evaluated according to the complex IV accessibility assay (Siskind, L. J. et al. (2002) “CERAMIDE CHANNELS INCREASE THE PERMEABILITY OF THE MITOCHONDRIAL OUTER MEMBRANE To SMALL PROTEINS,” J. Biol. Chem. 277:26796-26803). This assay measures the CN-sensitive oxidation of exogenously-added reduced cytochrome c by cytochrome c oxidase of the inner membrane. […] Mitochondria are incubated with test agents (e.g., C16-ceramide) for a predetermined period of time (e.g., 5-20 minutes), reduced cytochrome c is added and the absorbance is monitored at 550 nm. […]

ceramide:phospholipids ratio needed to permeabilize an erythrocyte membrane relative to MOM (erythrocytes) | Compound | concentration exhibiting potent inhibitory effects on ceramide channels (ceramide channels) | ceramide inserted sufficient to permeabilize the outer membrane to cytochrome c [1]
 | OC[C@H]1O[C@H](O[C@H]2O[C@H](CO)[C@@H](O)[C@H](O)[C@H]2O)[C@H](O)[C@@H](O)[C@@H]1O [trehalose] | 50 mM | 
20 fold | ceramide |  | 2 pmoles per nmole of phospholip
